According to patent EP4201929A1, “QUINOXALINE THIOREDOXIN REDUCTASE INHIBITORS” (geneXplain GmbH, priority 2021, dated 2023):
Counter-ions that a name gives are not always drawn. Values belong to the compound of their own block, whether it stands above or below them.

Assays:
Solubility (solvent) = type: physicochemical; settings: solvent named in the table
HCT116-Cas9 = assay: Growth suppression assay (resazurin); type: cell-based; settings: 48 hours of incubation
Description: (§1) Breast, colon, ovarian, cervical, liver and lung carcinoma cell lines were grown in DMEM supplemented with 10% FBS, and antibiotics were cultured at 37 °C and 5% CO2. […] To obtain an oxygen concentration of 0.05%, the cells were flushed with the premixed gas continuously throughout the experiment.
(§2) Cells were grown in 96-well plates at a density of 3000 cells per well with or without doxycycline and treated with compounds. After 48 hours of incubation the proliferative cell reagent resazurin (Thermo Fisher Scientific) was added to the cells. The degree of resazurin reduction, which reflects cell viability, was measured by microplate reader by monitoring the absorbance at 570 nm and 600 nm, according to the manufacturer.

MCF7-Cas9 = assay: Growth suppression assay (resazurin); type: cell-based; settings: 48 hours of incubation
Description: as §1, §2

TrxRl = TrxRl (Homo sapiens, UniProt Q16881); settings: cell extracts and crystal structure of tetrameric TrxRl; earlier publication of the applicants; cited from earlier work
Chain of TrxRl (Q16881 151-649): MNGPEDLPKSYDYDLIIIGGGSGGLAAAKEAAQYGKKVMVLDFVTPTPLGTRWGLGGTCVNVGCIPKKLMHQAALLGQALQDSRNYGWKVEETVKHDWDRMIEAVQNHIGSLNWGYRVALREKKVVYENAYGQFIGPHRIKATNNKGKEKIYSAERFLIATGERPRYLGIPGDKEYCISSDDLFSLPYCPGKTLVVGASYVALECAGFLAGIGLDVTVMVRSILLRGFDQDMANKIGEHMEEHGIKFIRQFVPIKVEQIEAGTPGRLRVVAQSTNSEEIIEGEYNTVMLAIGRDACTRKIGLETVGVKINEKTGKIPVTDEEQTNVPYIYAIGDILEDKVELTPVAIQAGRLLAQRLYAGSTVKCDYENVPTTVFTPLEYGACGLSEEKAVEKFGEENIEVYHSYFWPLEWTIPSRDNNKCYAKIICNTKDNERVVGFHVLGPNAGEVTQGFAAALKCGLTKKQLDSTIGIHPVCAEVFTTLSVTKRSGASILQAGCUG

SMILES: N#Cc1c(-c2ccncc2)[n+]([O-])c2cc(F)c(N3CCOCC3)cc2[n+]1[O-] [1b*MsOH, 6-Fluoro-7-(morpholin-4-yl)-3-(pyridin-4-yl)quinoxaline-2-carbonitrile-1,4-dioxide methanesulfonate]
IC50 (MCF7-Cas9; methanesulfonate): 4.2 µM

SMILES: N#Cc1c(-c2cccnc2)[n+]([O-])c2cc(F)c(N3CCOCC3)cc2[n+]1[O-] [Compound 1d, 6-Fluoro-7-(morpholin-4-yl)-3-(pyridin-3-yl)quinoxaline-2-carbonitrile-1,4-dioxide]
Solubility (Solubility (solvent)): Warm DMSO
IC50 (HCT116-Cas9): 4.1 µM

SMILES: N#Cc1c(-c2ccncc2)[n+]([O-])c2cc(N3CCOCC3)c(F)cc2[n+]1[O-] [1a*MsOH, 7-Fluoro-6-(morpholin-4-yl)-3-(pyridin-4-yl)quinoxaline-2-carbonitrile-1,4-dioxide methanesulfonate]
IC50 (HCT116-Cas9; methanesulfonate): 1.2 µM
IC50 (MCF7-Cas9; methanesulfonate): 2.4 µM

SMILES: N#Cc1c(-c2ccncc2)[n+]([O-])c2cc(F)c(N3CCOCC3)cc2[n+]1[O-] [1b*HCl, 6-Fluoro-7-(morpholin-4-yl)-3-(pyridin-4-yl)quinoxaline-2-carbonitrile-1,4-dioxide hydrochloride]
IC50 (HCT116-Cas9; hydrochloride): 3.2 µM
IC50 (MCF7-Cas9; hydrochloride): 3.8 µM

SMILES: OCc1ccc(-c2ccc(-c3ccc(CO)s3)o2)s1 [RITA]
covalent link between TrxRl subunits (TrxRl): induced the formation of a covalent link between two oxidized Trp114 residues

Continued, values first:

Solubility (Solubility (solvent)): Warm DMSO
IC50 (HCT116-Cas9; 48 h): 2.2 µM
IC50 (MCF7-Cas9; 48 h): 3.8 µM
SMILES: N#Cc1c(-c2cccnc2)[n+]([O-])c2cc(F)c(N3CCCC3)cc2[n+]1[O-] [Compound 1f, 6-Fluoro-7-(pyrrolidin-1-yl)-3-(pyridin-3-yl)quinoxaline-2-carbonitrile-1,4-dioxide]

IC50 (HCT116-Cas9; hydrochloride): 10.9 µM
IC50 (MCF7-Cas9; 48 h): > 10 µM
SMILES: N#Cc1c(-c2cccnc2)[n+]([O-])c2cc(N3CCOCC3)c(F)cc2[n+]1[O-] [1c*HCl, 7-Fluoro-6-(morpholin-4-yl)-3-(pyridin-3-yl)quinoxaline-2-carbonitrile-1,4-dioxide hydrochloride]

Solubility (Solubility (solvent)): Warm DMSO
IC50 (HCT116-Cas9): 3.3 µM
SMILES: N#Cc1c(-c2cccnc2)[n+]([O-])c2cc(N3CCOCC3)c(F)cc2[n+]1[O-] [Compound 1c, 7-Fluoro-6-(morpholin-4-yl)-3-(pyridin-3-yl)quinoxaline-2-carbonitrile-1,4-dioxide]

Solubility (Solubility (solvent)): Warm DMSO
IC50 (HCT116-Cas9): 3.5 µM
IC50 (MCF7-Cas9): 6.9 µM
SMILES: N#Cc1c(-c2ccncc2)[n+]([O-])c2cc(N3CCOCC3)c(F)cc2[n+]1[O-] [Compound 1a, 7-Fluoro-6-(morpholin-4-yl)-3-(pyridin-4-yl)quinoxaline-2-carbonitrile 1,4-dioxide]

Solubility (Solubility (solvent)): Warm DMSO
IC50 (HCT116-Cas9; 48 h): 2.8 µM
IC50 (MCF7-Cas9; 48 h): 4.1 µM
SMILES: N#Cc1c(-c2ccncc2)[n+]([O-])c2cc(F)c(N3CCOCC3)cc2[n+]1[O-] [Compound 1b, 6-Fluoro-7-(morpholin-4-yl)-3-(pyridin-4-yl)quinoxaline-2-carbonitrile-1,4-dioxide]

Solubility (Solubility (solvent)): Warm DMSO
IC50 (HCT116-Cas9; 48 h): 2.8 µM
IC50 (MCF7-Cas9; 48 h): 4.1 µM
SMILES: N#Cc1c(-c2cccnc2)[n+]([O-])c2cc(F)c(N3CCCCC3)cc2[n+]1[O-] [Compound 1g, 6-Fluoro-7-(piperidin-1-yl)-3-(pyridin-3-yl)quinoxaline-2-carbonitrile-1,4-dioxide]
